PMC4261083, “An atypical residue in the pore of Varroa destructor GABA-activated RDL receptors affects picrotoxin block and thymol modulation” (Insect Biochemistry and Molecular Biology, 2014)
Numbering of substitutions follows the chain as printed.

Experiments:
[1] = target: T1, 4M2 mutant Drosophila RDL receptor (N-7′H, T6′M, A20′S and A21′Q) (Drosophila melanogaster, UniProt P25123, A319S/A320Q/N292H/T305M); assay type: cell-based; conditions: 4M2 RDL
T1 construct: expressed in transfected cells; host or cells: Xenopus laevis oocytes injected with cRNA
T1 sequence (P25123 45-606 N292H/T305M/A319S/A320Q): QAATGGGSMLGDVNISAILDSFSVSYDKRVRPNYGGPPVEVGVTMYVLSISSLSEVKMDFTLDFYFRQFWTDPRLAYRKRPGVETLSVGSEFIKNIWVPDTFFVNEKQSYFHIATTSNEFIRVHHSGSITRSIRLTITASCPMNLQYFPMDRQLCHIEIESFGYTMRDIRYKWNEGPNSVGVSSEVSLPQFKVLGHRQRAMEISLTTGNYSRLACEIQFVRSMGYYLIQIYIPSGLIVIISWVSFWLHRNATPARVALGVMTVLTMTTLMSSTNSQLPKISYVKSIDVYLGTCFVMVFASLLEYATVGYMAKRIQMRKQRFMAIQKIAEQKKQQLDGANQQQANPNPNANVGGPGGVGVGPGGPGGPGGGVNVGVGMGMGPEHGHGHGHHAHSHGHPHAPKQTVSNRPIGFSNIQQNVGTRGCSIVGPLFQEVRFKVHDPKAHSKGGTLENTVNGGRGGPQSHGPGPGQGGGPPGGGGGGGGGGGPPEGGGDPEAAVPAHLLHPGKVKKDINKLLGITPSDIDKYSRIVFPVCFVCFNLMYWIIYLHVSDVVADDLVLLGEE
Procedure: (§1) X. laevis oocyte-positive females were purchased from NASCO (Fort Atkinson, Wisconsin, USA) and maintained according to standard methods. Harvested stage V-VI Xenopus oocytes were washed in four changes of ND96 (96 mM NaCl, 2 mM KCl, 1 mM MgCl2, 1 mM CaCl2, 5 mM HEPES, pH 7.5), de-folliculated in 1.5 mg ml^−1 collagenase Type 1A for approximately 2 h, washed again in four changes of ND96 and stored in ND96 containing 2.5 mM sodium pyruvate, 0.7 mM theophylline and […].
Site directed mutagenesis was performed with the QuikChange mutagenesis kit (Agilent, La Jolla, CA). cRNA was transcribed in vitro from linearised pGEMHE cDNA template using the mMessage mMachine T7 Transcription kit (Ambion, Austin, Texas, USA). Stage V and VI oocytes were injected with 5 ng cRNA, incubated at 18 °C, and currents recorded 18–24 h post-injection.
Currents were recorded at 5 kHz and filtered at a frequency of 1 kHz. Micro-electrodes were fabricated from borosilicate glass (GC120TF-10, Harvard Apparatus, Edenbridge, Kent, UK) using a one stage horizontal pull (P-87, Sutter Instrument Company, California, USA) and filled with 3 M KCl. […] Oocytes were perfused with ND96 at a constant rate of 12 ml min^−1. Drug application was via a simple gravity fed system calibrated to run at the same rate.
(§2) Analysis and curve fitting was performed using Prism v5 (GraphPad Software, San Diego, California, USA). Concentration-response data for each oocyte was normalised to the maximum current for that oocyte. The mean and S.E.M. for a series of oocytes were fitted to the four parameter logistic equation in Prism.

[2] = target: T2, wild type Drosophila RDL receptor (Drosophila melanogaster, UniProt P25123); test: Picrotoxin inhibition of GABA responses, two electrode voltage clamp in Xenopus oocytes; assay type: cell-based
T2 construct: expressed in transfected cells; host or cells: Xenopus laevis oocytes injected with cRNA
T2 sequence (P25123 45-606): T1 sequence (P25123 45-606 N292H/T305M/A319S/A320Q) with H248N, M261T, S275A, Q276A
Procedure: as §1
Drosophila RDL subunit cDNA (kindly gifted from N.Millar) was subcloned into pGEMHE for oocyte expression as previously described ([McGonigle and Lummis, 2010], [Millar et al., 1994]). Site directed mutagenesis was performed with the QuikChange mutagenesis kit (Agilent, La Jolla, CA). cRNA was transcribed in vitro from linearised pGEMHE cDNA template using the mMessage mMachine T7 Transcription kit (Ambion, Austin, Texas, USA). Stage V and VI oocytes were injected with 5 ng cRNA, incubated at 18 °C, and currents recorded 18–24 h post-injection.
Xenopus oocytes were clamped at −60 mV using an OC-725 amplifier (Warner Instruments, Connecticut, USA), Digidata 1322A and the Strathclyde Electrophysiology Software Package (Department of Physiology and Pharmacology, University of Strathclyde, UK), or using the Roboocyte (MultiChannel Systems). Currents were recorded at 5 kHz and filtered at a frequency of 1 kHz. Micro-electrodes were fabricated from borosilicate glass (GC120TF-10, Harvard Apparatus, Edenbridge, Kent, UK) using a one stage horizontal pull (P-87, Sutter Instrument Company, California, USA) and filled with 3 M KCl. Pipette resistances ranged from 1.0 to 2.0 MΩ. Oocytes were perfused with ND96 at a constant rate of 12 ml min^−1. Drug application was via a simple gravity fed system calibrated to run at the same rate.
as §2

Molecule	Effect of thymol on GABA-induced responses ([1]; 100 μM thymol, at some GABA concentrations)	Fold change in EC50 ([1]; GABA EC50 control vs +100 μM thymol)	% Imax ([1]; GABA concentration-response in presence of 100 μM thymol)	IC50 [2]	Picrotoxin pIC50 [2]
Cc1ccc(C(C)C)c(O)c1 [Thymol, thymol]	inhibition	3.0	52 ± 4%		
picrotoxin				0.18 µM	6.75 ± 0.22
